This is an account of results in ChEMBL document CHEMBL1137512, “Synthesis and evaluation of chloromethyl sulfoxides as a new class of selective irreversible cysteine protease inhibitors” (Bioorg Med Chem, 2007).

For orientation: Ki means the equilibrium dissociation constant of an inhibitor or competing ligand from its target. High values mean a looser hold on the target, low ones a stronger hold on the target.

Activity calls are given as the source filed them. No cut-off for these calls is given here.

Assay [1] can be described thus: Inhibition of papain by colorimetric assay.
Assay [2] can be described thus: Binding affinity to papain at 10 uM by fluorescent binding test.

`CC(C)(C)OC(=O)N[C@@H](Cc1ccccc1)C(=O)NCC[S+]([O-])CCl` (stereo partly drawn) yielded a Ki in assay [1] of 3670 µM.

As for `CC(C)(C)OC(=O)N[C@@H](Cc1ccccc1)C[S+]([O-])CCl` (stereo partly drawn), the inhibition constant (Ki) in assay [1] worked out at 142 µM.

The compound `CC(C)C[C@@H](C[S+]([O-])CCl)NC(=O)OC(C)(C)C` (stereo partly drawn) gave a Ki in assay [1] of 485 µM. This Ki is about 3.4-fold higher than that of the compound before.

As to `CC(C)[C@@H](C[S+]([O-])CCl)NC(=O)OC(C)(C)C` (stereo partly drawn), the inhibitory constant (Ki) in assay [1] worked out at 543 µM.

`C[C@@H](C[S+]([O-])CCl)NC(=O)OC(C)(C)C` (stereo partly drawn) came in with an inhibition constant Ki in assay [1] of 1430 µM.

With `CC(C)(C)OC(=O)NCC[S+]([O-])CCl` (stereo not drawn), the outcome in assay [1] was inactive.

`CN(C)c1cccc2c(S(=O)(=O)NCC(=O)NCC[S+]([O-])CCl)cccc12` (stereo not drawn) had a Ki in assay [1] of 471 µM. The compound further had an Activity in assay [2] of 40%.
